Source: patent US20160143867A1, “METHODS AND PHARMACEUTICAL COMPOSITIONS FOR TREATING CANCER” (INSERM (INSTITUT NATIONAL DE LA SANTÉ ET DE LA RECHERCHE …, priority 2013, published 2016)

System: glioma-initiating cells (GICs)
Assay: Cell survival of GICs exposed to GHB
Conditions: exposure of GICs to GHB

O=C(O)CCCO [GHB, gamma-hydroxybutyrate]
cell survival: without affecting cell survival
